12 compounds from PubChem BioAssay (NCI) can be followed below.

Assay in all cases: inhibition of tumour cell growth, NCI panel, 48 h
Assay [1] has as its system COLO 205 colon.
The subject of assay [2] is HOP-62 NSCLC.
In assay [3] the test system is HOP-92 NSCLC.
The subject of assay [4] is NCI-H460 lung.
For assay [5], the system named is OVCAR-3 ovarian.
Assay [6] relates to PC-3 prostate.
Assay [7] deals with SK-MEL-2 melanoma.
Assay [8] has as its system SK-MEL-5 melanoma.
Assay [9] relates to SN12C renal.
Assay [10] has as its system SNB-19 CNS.

Molecules are shown by their SMILES.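 The compound was tested at five concentrations on cells cultured in 96-well plates, with a 48-hour exposure period. At the GI50, growth is halved. TGI is the concentration that stops growth completely.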 Where only a bound is given, the exact number is not on record here.

For the compound `COc1cc2nc(Cl)nc(Nc3cccc(C(=O)/C=C/c4ccccc4)c3)c2cc1OC`, the GI50 was 11.4 µM in [1]; 3.71 µM in assay [2]; 2.09 µM in assay [3]; 4.2 µM in [4]; 3.75 µM in assay [5]; 3.86 µM in assay [6]. Further, the GI50 in [7] was over 21 µM; in [8] it was over 22.8 µM; in assay [9], 3.98 µM; in assay [10] it was 2.96 µM. Also, the TGI in assay [1] is over 100 µM; in [2], 31.7 µM; in assay [3], 8.52 µM; in assay [4], over 100 µM; in [5], 31.3 µM; in assay [6], 27.8 µM. The TGI was over 75.9 µM in assay [7], over 100 µM in assay [8], 41.1 µM in assay [9] and over 31.8 µM in assay [10].

In the case of `NC(=O)[C@H]1CCN(c2ncnc(N)c2F)C[C@@H]1N1CCC[C@@H](Nc2cc(Cl)cc(C(F)(F)F)c2)C1=O`, the GI50 was 5.24 µM in assay [1]; 22 µM in assay [2]; 11.2 µM in assay [3]; 18.4 µM in assay [4]; 28.5 µM in assay [5]; 17.7 µM in assay [6]. Moreover, the GI50 is 19 µM in [7], 16.3 µM in [8], 10.9 µM in assay [9] and 25.8 µM in [10]. For the same compound, the TGI in assay [1] is 34.2 µM; in assay [2], over 100 µM; in assay [3], 40.7 µM; in assay [4], 41.6 µM; in assay [5], over 100 µM; in assay [6], over 100 µM. Besides, the TGI in assay [7] is 41.5 µM; in [8], 30 µM; in [9], over 100 µM; in assay [10], over 100 µM.

`N#Cc1ncc(/N=C/c2ccc(N(CCCl)CCCl)cc2)s1`: the GI50 in [1] was 64 µM; in [2] it was 17.9 µM; in assay [3], 24.7 µM; in assay [4], 3.31 µM; in [5], 14.5 µM; in assay [6] it was 34.9 µM. For the same compound, the GI50 in assay [7] was 69.9 µM; in assay [8], 27.9 µM; in assay [9] it was 8.28 µM; in assay [10] it was 77.7 µM. Further, the TGI in assay [1] is over 100 µM; in [2], over 100 µM; in assay [3], 93.3 µM; in assay [4], 66.8 µM; in assay [5] it was 45 µM; in assay [6] it was over 100 µM. Moreover, the TGI in [7], in assay [8], in assay [9] and in [10] was over 100 µM in each case.

In the case of `CCN(CC)c1ccc(/C=C/c2cc(C)c3ccccc3n2)cc1`, the GI50 in assay [1] was 2.14 µM; in [2], 4.6 µM; in assay [3], 3.63 µM; in assay [4] it was 3 µM; in assay [5], 1.82 µM; in [6], 4.84 µM. Moreover, the GI50 in [7] is 2.61 µM; in [8], 3.1 µM; in [9] it was 7.27 µM; in assay [10] it was 5.92 µM. The TGI in assay [1] is 5.23 µM; in assay [2] it was 34.7 µM; in assay [3], 22.9 µM; in assay [4] it was 11.7 µM; in assay [5], 4.78 µM; in [6], over 100 µM. Further, the TGI in assay [7] was 6.78 µM; in [8], 11.8 µM; in assay [9] it was over 100 µM; in assay [10], over 100 µM.

Regarding `Fc1ccc(-c2nc3n(c2-c2ccncc2)CCS3)cc1`, the GI50 in assay [1], in [2], in assay [3], in [4], in [5] and in assay [6] was over 25 µM in each case. Also, the GI50 in [7] was over 25 µM; in assay [8] it was over 18 µM; in assay [9], over 25 µM; in assay [10], over 25 µM. For the same compound, the TGI in [1], in assay [2], in assay [3], in assay [4], in assay [5] and in [6] was over 25 µM in each case. The TGI in assay [7], in [8], in assay [9] and in assay [10] was over 25 µM throughout.

Turning to `CC1Oc2cc3c(-c4c(O)cc(O)c5c(O)c6c(cc45)OC(C)C(C)C6=O)c(O)cc(O)c3c(O)c2C(=O)C1C` (stereo not given), the TGI in assay [1] turned out to be 0.39 µM; in assay [2], 1.23 µM; in assay [3] it was 0.854 µM; in [4], 0.163 µM; in assay [5], 0.816 µM; in assay [6], 0.698 µM. In addition, the TGI is 0.331 µM in assay [7], 0.461 µM in assay [8], 1.12 µM in assay [9] and 1.16 µM in assay [10].

On to `CCCN1C(=O)/C(=c2\sc3n(c2=O)C2C(NN=3)N(CC)C(=O)N2CC)c2ccccc21` (stereo not given), for which the GI50 is 0.665 µM in assay [1]; 0.562 µM in assay [2]; 0.885 µM in [3]; 0.411 µM in [4]; 0.289 µM in [5]; 0.453 µM in assay [6]. The GI50 was 0.799 µM in assay [7], 0.369 µM in [8], 1.26 µM in assay [9] and 0.765 µM in [10]. For the same compound, the TGI in [1] was 10.4 µM; in assay [2] it was 16 µM; in assay [3] it was 16.3 µM; in [4], 12.1 µM; in assay [5] it was 0.8 µM; in assay [6], over 37.2 µM. For the same compound, the TGI worked out at 15.4 µM in assay [7], 3.15 µM in [8], 20.1 µM in assay [9] and 23.8 µM in [10].

As to `OCC1OC(n2ccc3c2ncn2ncnc32)C(O)C1O` (stereo not given), the GI50 in assay [1] is 2.77 µM; in [2], 0.595 µM; in [3], 0.253 µM; in assay [4], 2.25 µM; in assay [5] it was 0.552 µM; in assay [6], 0.459 µM. In addition, the GI50 in assay [7] is 46.2 µM; in assay [8], 12 µM; in assay [9], 0.6 µM; in assay [10] it was 4.7 µM. Besides, the TGI was 19.1 µM in assay [1]; 33.1 µM in assay [2]; 9.22 µM in assay [3]; over 100 µM in [4]; over 100 µM in assay [5]; 22.8 µM in assay [6]. In addition, the TGI in [7] is over 100 µM; in assay [8], 50.1 µM; in assay [9] it was over 100 µM; in assay [10], over 100 µM.

In the case of `Cc1ccc2[nH]c(C(=O)NN3C(=O)CSC34CCCCC4C)c(-c3ccccc3)c2c1` (stereo not given), the GI50 in assay [1] was 20.4 µM; in assay [2], 18 µM; in assay [3], 12.7 µM; in [4], 18.2 µM; in [5] it was 13.9 µM; in [6], 12.5 µM. Besides, the GI50 is 20.9 µM in assay [7], 15.1 µM in assay [8], 17.7 µM in [9] and 19.2 µM in assay [10]. Besides, the TGI amounted to 48.9 µM in assay [1]; 33.9 µM in assay [2]; 27.3 µM in assay [3]; 43.7 µM in assay [4]; 30.1 µM in assay [5]; 30.1 µM in [6]. For the same compound, the TGI in assay [7] amounted to 38.7 µM; in assay [8], 31.3 µM; in assay [9] it was 34.2 µM; in assay [10], 42.6 µM.

Consider `C[C@]12CC[C@H]3[C@@H](CCC4=CC(=O)CC[C@@H]43)[C@@H]1CC[C@@H]2OC(=O)N(CCCl)N=O`, for which the GI50 in [1] is 3.1 µM; in assay [2] it was 3.17 µM; in assay [3], 0.391 µM; in assay [4] it was 0.0702 µM; in [5] it was 7.83 µM; in [6] it was 5.02 µM. For the same compound, the GI50 is 3.07 µM in [7], 1.99 µM in assay [8], 1.69 µM in assay [9] and 0.265 µM in [10]. Besides, the TGI in assay [1] is 20 µM; in assay [2], 26.1 µM; in assay [3], 17.5 µM; in assay [4] it was 2.45 µM; in assay [5] it was 21.8 µM; in assay [6] it was over 48.1 µM. In addition, the TGI in [7] came to 28.6 µM; in assay [8] it was 16.1 µM; in [9], 21.4 µM; in assay [10], 24.3 µM.

Turning to `O=S(=O)(c1ccc(NC(=S)NCc2cccnc2)cc1)N1CCCCC1`, the GI50 in assay [1] is 8.63 µM; in [2], over 100 µM; in assay [3] it was 11.1 µM; in [4], 7.67 µM; in [5], 52.6 µM; in assay [6], 1.5 µM. For the same compound, the GI50 in assay [7] is 16.6 µM; in assay [8], 12.1 µM; in assay [9], 0.21 µM; in [10], 9.5 µM. The TGI in assay [1], in assay [2], in [3], in [4], in assay [5] and in assay [6] was over 100 µM in each case. For the same compound, the TGI was over 100 µM in assay [7], 45.8 µM in [8], over 100 µM in [9] and over 100 µM in [10].

With `CC1=CC(=O)c2c(O)cccc2C1=O`, the TGI in [1] was 3.39 µM; in assay [2], 17.6 µM; in assay [3] it was 1.43 µM; in [4], over 26.1 µM; in [5], 2.29 µM; in assay [6] it was 4.75 µM. The TGI was determined as 3.72 µM in assay [7], 3.05 µM in assay [8], 3.39 µM in assay [9] and 25 µM in assay [10].
